[invAb] = inverted abasic unit; m = 2'-O-methyl; r = 2'-OH (RNA); f = 2'-fluoro
Legend:
Bach1 mRNA [1] = test: Initial screen: Bach1 mRNA knock-down in human A549 cells (96-well transfection, quantitative RT-PCR); assay type: cell-based; details: Bach1 mRNA, 10 nM siNA, human A549 cells, n = 2, mean ± S.D., normalized to GAPDH and non-targeting control, 24 hrs post-transfection
Procedure: (§1) All cells were obtained from ATCC (Manassas, Va.) unless otherwise indicated. Cells were grown and transfected under standard conditions, which are detailed below for each cell line.
(§2) Cells were plated in all wells of a tissue-culture treated, 96-well plate at a final count of 5000 cells/well in 100 μL of the appropriate culture media. The cells were cultured for 24 hours after plating at 37° C. in the presence of 5% CO2.
(§3) After 24 hours, complexes containing siNA and RNAiMax were created as follows: A solution of RNAiMax diluted 33-fold in OPTI-MEM was prepared. […] After incubation of RNAiMax/OPTI-MEM solution at room temperature for 5 min, an equal volume of the siNA solution and the RNAiMax solution were added together for each of the siNAs.
(§4) This solution was incubated at room temperature for 20 minutes. After incubation, 20 uL of the solution was added to each of the relevant wells. The final concentration of siNA in each well was 10 nM and the final volume of RNAiMax in each well was 0.3 ul. […]
(§5) Briefly, a 60 uL (1 plate) or 110 uL (2 plates) of the Lysis Solution with DNase I was dispensed into each well of the Lysis Buffer Plate (twin.tec full skirt plate). The lysis buffer and stop plates were stored at 4° C. until the cells were washed.
(§6) The plate was spun at 1100 rpm for 5 minutes. The culture medium was aspirated and discarded from the wells of the culture plate. The lysis was performed automatically using a BioMek FX instrument and method. After the Biomek method was completed, the lysis plate was incubated for 2 min at room temperature. The lysis plate can be stored for 2 hours at 4° C., or at −20° C. or −80° C. for two months.
(§7) Each well of the reverse transcription plate required 10 uL of 2× reverse transcriptase Buffer, 1 uL of 20× reverse transcription enzyme and 2 uL of nuclease-free water. The reverse transcription master mix was prepared by mixing 2× reverse transcription buffer, 20× reverse transcription enzyme mix, and nuclease-free water. 13 uL of the reverse transcription master mix was dispensed into each well of the reverse transcription plate (semi-skirted). A separate reverse transcription plate was prepared for each cell plate. The plate was loaded onto a Biomek NX or Biomek FX Dual −96 and the Biomek method was run. The program is programmed to automatically added 7 uL of lysate from the cell lysis procedure described above into each well of the reverse transcription plate. The plate is sealed and spun on a centrifuge (1000 rpm for 30 seconds) to settle the contents to the bottom of the reverse transcription plate. The plate is placed in a thermocycler at 37° C. for 60 min, 95° C. for 5 min, and 4° C. until the plate is removed from the thermocycler. Upon removal, if not used immediately, the plate was frozen at −20° C.
(§8) A series of probes and primers were used to detect the various mRNA transcripts of the genes of Bach1, HMOX-1, and GAPDH in mouse and human cell lines. The assays were performed on an ABI 7900 instrument, according to the manufacturer's instructions. […] The PCR reactions were carried out at 50° C. for 2 min, 95° C. for 20 min followed by 40 cycles at 95° C. for 15 secs and 60° C. for 1 min
(§9) Within each experiment, the […] was set in the exponential phase of the amplification curve, and based on the intersection point of the baselines with the amplification curve, a Ct value was assigned by the instrument.
(§10) The expression level of the gene of interest and % knock-down was calculated using Comparative Ct method:
(§11) ΔCt=ΔCt(Target siRNA)−ΔCt(NTC)
(§12) Relative expression level=2^−ΔΔCt
(§13) The non-targeting control siNA was, unless otherwise indicated, chosen as the value against which to calculate the % knock-down, because it is the most relevant control.

Bach1 mRNA [2] = test: Initial screen: Bach1 mRNA knock-down in mouse NIH 3T3 cells (96-well transfection, quantitative RT-PCR); assay type: cell-based; details: mouse NIH3T3 cells, n = 2, 24 hrs post-transfection, protocol 10 nM siNA
Procedure: as §1, §2, §3, §4, §5, §6, §7, §8, §9, §10, §11, §12, §13

| Substance | % KD (Bach1 mRNA [1]) | % KD (Bach1 mRNA [2]) |
| --- | --- | --- |
| 29976-DC: Bach1 siNA duplex, target site 1585 (mouse); sense B cuGcucAAGcAAcuuGGAA TTB (SEQ 101); antisense UUCcAAGuuGcuuGAGcAGUU (SEQ 102) (sense CUGCUCAAGCAACUUGGAATT; antisense UUCCAAGUUGCUUGAGCAGUU; sense: DNA at AGT, 2'-fluoro at CU, [invAb] at 5' end, 3' end, backbone not given here; antisense: sugars from the 5' end rrrfmmmffmfffmmmfmmmm, backbone not given here) | 17.5 ± 1.7% | −1.2 ± 11.6% |
| 29977-DC: Bach1 siNA duplex, target site 1640 (mouse); sense B GAGccuuGcccGuAuGcuu TTB (SEQ 103); antisense AAGcAuAcGGGcAAGGcucUU (SEQ 104) (sense GAGCCUUGCCCGUAUGCUUTT; antisense AAGCAUACGGGCAAGGCUCUU; sense: DNA at AGT, 2'-fluoro at CU, [invAb] at 5' end, 3' end, backbone not given here; antisense: sugars from the 5' end rrrfmfmfmmmfmmmmfffmm, backbone not given here) | 18.9 ± 0.3% | 53 ± 2.9% |
| 29978-DC: Bach1 siNA duplex, target site 403 (mouse); sense B GGuuAAAGGAuuuGAAccu TTB (SEQ 105); antisense AGGuucAAAuccuuuAAccUU (SEQ 106) (sense GGUUAAAGGAUUUGAACCUTT; antisense AGGUUCAAAUCCUUUAACCUU; sense: DNA at AGT, 2'-fluoro at CU, [invAb] at 5' end, 3' end, backbone not given here; antisense: sugars from the 5' end rrrfffmmmffffffmmffmm, backbone not given here) | 14.4 ± 0^ % | 3.3 ± 3.8% |
| 29979-DC: Bach1 siNA duplex, target site 1523 (mouse); sense B cGGAcuuucAcAAcucucA TTB (SEQ 107); antisense UGAGAGuuGuGAAAGuccGUU (SEQ 108) (sense CGGACUUUCACAACUCUCATT; antisense UGAGAGUUGUGAAAGUCCGUU; sense: DNA at AGT, 2'-fluoro at CU, [invAb] at 5' end, 3' end, backbone not given here; antisense: sugars from the 5' end rrrmmmffmfmmmmmfffmmm, backbone not given here) | −18.1 ± 18^ % | 62.4 ± 2.6% |
| 29980-DC: Bach1 siNA duplex, target site 1939 (mouse); sense B cGAGAAGcuGcAAAGuGAA TTB (SEQ 109); antisense UUCAcuuuGcAGcuucucGUU (SEQ 110) (sense CGAGAAGCUGCAAAGUGAATT; antisense UUCACUUUGCAGCUUCUCGUU; sense: DNA at AGT, 2'-fluoro at CU, [invAb] at 5' end, 3' end, backbone not given here; antisense: sugars from the 5' end rrrmffffmfmmffffffmmm, backbone not given here) | 91.3 ± 0.9% | 49.2 ± 1.1% |
| 29981-DC: Bach1 siNA duplex, target site 331 (mouse); sense B cAGcuAcuuccAcucGAGA TTB (SEQ 111); antisense UCUcGAGuGGAAGuAGcuGUU (SEQ 112) (sense CAGCUACUUCCACUCGAGATT; antisense UCUCGAGUGGAAGUAGCUGUU; sense: DNA at AGT, 2'-fluoro at CU, [invAb] at 5' end, 3' end, backbone not given here; antisense: sugars from the 5' end rrrfmmmfmmmmmfmmffmmm, backbone not given here) | 1 ± 0.9% | 3.5 ± 5% |
